PubChem BioAssay (NCI)
Where “and” joins values, the source holds several entries; their conditions need not be identical. Equal values may be shown once.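 Dose response: 5 concentrations. Exposure: 48 h. Format: 96-well plates. Endpoint: linear interpolation; highest concentration if not reached. GI50 = concentration required for 50% inhibition of growth. Definition used: TGI = concentration required for complete inhibition of growth.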 Where a SMILES comes first, the peptide text is derived from it. [ ]: non-standard residue; d: D form. The star is where a group is joined. Decanoyl = CCCCCCCCCC(=O)*; Leu(ol) = CC(C)C[C@H](N)CO; Iva = CC[C@](C)(N)C(=O)O; Aib = CC(C)(N)C(=O)O

System: MDA-MB-468 breast
Assay: NCI anticancer screen, dose series, 48 h

| Compound | GI50 | TGI |
| --- | --- | --- |
| O=C(N/N=C/c1ccc(O)cc1O)c1cccc(Nc2ccnc(C(F)(F)F)c2)c1 | 0.626 µM | > 58.3 µM |
| O=[N+]([O-])c1cc(C(F)(F)F)ccc1Sc1ccc(C(F)(F)F)cc1[N+](=O)[O-] | 3.67 µM | > 100 µM |
| O=C1/C(=C/c2ccc(Cl)cc2)CCC/C1=C\c1ccc(Cl)cc1 | 3.08 µM | 9.21 µM |
| CC1(N)CCN(c2cnc(-c3cccc(Cl)c3Cl)c(N)n2)CC1 | 2.58 µM | 17.2 µM |
| COc1cc(-c2csc(NC(=O)Nc3ccc(C(F)(F)F)cc3)n2)cc(OC)c1OC | 1.72 µM | 5.71 µM |
| C/C(=C\c1cc(C(F)(F)F)n(-c2ccc(N)cc2)n1)[C@@H]1C[C@@H]2O[C@]2(C)CCC[C@H](C)[C@H](O)[C@@H](C)C(=O)C(C)(C)[C@@H](O)CC(=O)O1 | 0.0336 µM | 0.231 µM |
| CCCCCCCCCC(=O)N[C@@](C)(CC)C(=O)N1CCC[C@H]1C(=O)N[C@@H](CC(C)C)C(=O)N[C@@](C)(CC)C(=O)N[C@@H](CCC(N)=O)C(=O)N[C@H](CCC(N)=O)C(=O)NC(C)(C)C(=O)NC(C)(C)C(=O)N[C@@H](CCC(N)=O)C(=O)N[C@H](CC(C)C)C(=O)N[C@H](CO)CC(C)C (Decanoyl-[Iva]PL[Iva]Q[dQ][Aib][Aib]Q[dL][Leu(ol)]) | 1.77 µM | 3.49 µM |
| CCOC(=O)C#Cc1c(C(=O)OCC)nnn1Cc1ccc([N+](=O)[O-])cc1 | 1.96 µM | 4.4 µM |
| OCCNc1nc(Nc2ccc(Cl)c(Cl)c2)nc2ccccc12 | 1.83 µM | 5.3 µM |
| O=C(/C=C/C12c3ccccc3C(c3ccccc31)C1C(=O)NC(=O)C12)c1ccc(F)cc1 (stereo unspecified) | 1.99 µM | 4.1 µM |
| O=C1C=CC(=O)N1c1cccc(N2C(=O)C=CC2=O)c1 | 1.88 µM | 3.99 µM |
| CC1(C)NCCC[C@]2(C)[C@H]3CC[C@@H]4[C@H]5[C@H](C(=O)/C=C/c6ccccn6)CC[C@]5(CO)CC[C@@]4(C)[C@]3(C)CC[C@@H]12 | 2.08 µM | 4.77 µM |
| CCn1c(-c2nonc2N)nc2c(C#CC(C)(C)O)ncc(OC[C@H]3CCCNC3)c21 | 0.0872 µM | 18.9 µM |
| Cc1cc2c(C(N)=O)c(N)n(-c3c(C)ccc(O)c3C)c2nc1C | 8.69 µM | 29.7 µM |
| Oc1ccc(C2c3ccccc3Oc3ccccc32)c2cccnc12 | 0.644 µM | 4.53 µM |
| Cc1ccc(NS(=O)(=O)c2cccc(C#N)c2)c2[nH]cc(C#N)c12 | 4.44 µM | 58.2 µM |
| NS(=O)(=O)NCCNc1nonc1C(=Nc1ccc(F)c(Br)c1)NO | 23.5 µM | 76.5 µM |
| Cc1ccc(C(=O)/C(=C\c2ccc([N+](=O)[O-])cc2)S(=O)Cc2ccc(Cl)cc2)cc1 (stereo unspecified) | 1.74 µM | 3.44 µM |
| O=C(O)c1c(=O)cccc2ssc12 | 2.14 µM | 4.38 µM |
| C=C(CO)[C@@H]1CC[C@]2(COC3CCCCO3)CC[C@]3(C)[C@H](CC[C@@H]4[C@@]5(C)C=C(C=O)C(=O)C(C)(C)[C@@H]5CC[C@]43C)[C@@H]12 (stereo partly specified) | 0.244 µM | 0.665 µM |
| Cc1cc(N2CCOCC2)nc(N(CCCNc2ccnc3cc(Cl)ccc23)Cc2ccco2)n1 | 2.21 µM | 7.33 µM |
| CC([C@H]1CCC2C3CCC4C[C@@H](N)CC[C@]4(C)C3CC[C@@]21C)N(C)C (stereo partly specified) | 1.57 µM | 4.83 µM |

| Compound | GI50 | TGI |
| --- | --- | --- |
| Clc1ccccc1CNc1c2ccccc2nc2ccccc12 | 1.12 µM | 3.04 µM |
| COc1cc2nccc(Oc3ccc(NC(=O)Nc4cc(C)on4)c(Cl)c3)c2cc1OC | 2.34 µM and 2.93 µM | 8.09 µM and > 10 µM |
| CCc1ccc(C(=Nc2ccc(N(C)C(=O)CN3CCN(C)CC3)cc2)c2c(O)[nH]c3ccc(C(=O)OC)cc23)cc1 | 0.73 µM | 2.35 µM |
| N#C/C(=C\c1ccc(Br)cc1)n1nnc2cc(Cl)c(Cl)cc21 | 2.15 µM | 5.13 µM |
| CCOC(=O)c1ccc(NC2=C(Cl)C(=O)c3nc(C)ccc3C2=O)cc1 | 1.66 µM | 3.54 µM |
| C=C1C(=O)O[C@H]2[C@H]1CC/C(COC(=O)C(C)c1ccc(CC(C)C)cc1)=C\CC[C@@]1(C)O[C@@H]21 (stereo partly specified) | 1.76 µM | 3.79 µM |
| CCCN(CCC)c1ccc(/C=N/NC(=O)c2cccnc2)c(OC)c1 | 6.22 µM | 58.9 µM |
| CC(CN(C)C)Oc1ccccc1NC1=C(Cl)C(=O)C(Nc2ccccc2OC(C)CN(C)C)=C(Cl)C1=O (stereo unspecified) | 0.163 µM | 0.328 µM |
| C[N+](C)(C)CC(=O)N/N=C(\C(=O)NC1=C(Cl)C(=O)c2ccccc2C1=O)C(C#N)c1nc(-c2ccc([N+](=O)[O-])cc2)cs1 (stereo unspecified) | 3.89 µM | 16 µM |
| CN1CCN(c2ccc(NC(=O)c3cncnc3Nc3ccc(OCc4ccccn4)c(Cl)c3)cc2)CC1 | 3.88 µM | 9.39 µM |
| CC(=[N-])N1CCC[C@@H](Nc2c3ccccc3nc3ccccc23)C1.[Cl][Pt].[NH-]CCC[NH-] | 0.128 µM | 0.901 µM |
| Nc1ccc(-c2cccs2)cc1NC(=O)c1ccc(CCCC(=O)Nc2ccc(C3CC3N)cc2)cc1 (stereo unspecified) | 1.9 µM | 4.37 µM |
| CC1=C(C(=O)Nc2cc(Cl)c3[nH]ncc3c2)C(c2ccc(C(F)(F)F)cc2)CC(=O)N1 (stereo unspecified) | 8.02 µM | > 25 µM |
| COc1ccc2c(c1)C(=O)/C(=C/c1ccc([N+](=O)[O-])o1)O2 | 0.818 µM | 2.56 µM |
| Cc1ccc(NC(=O)CSc2nnc3n(Cc4ccccc4)c(=O)c4c(C)c(C(N)=O)sc4n23)cc1 | 18.6 µM | > 100 µM |
| Oc1c(Cl)cc(Cl)cc1C(c1cc(Cl)cc(Cl)c1O)C(Cl)(Cl)Cl | 2.17 µM | 7.63 µM |
| C/C(O)=C(\C#N)C(=O)Nc1ccc(C(F)(F)F)cc1 | 37.2 µM | > 100 µM |
| Cc1cc(-c2ccccn2)cc(C)c1/C=C/c1cncc(-c2nn[nH]n2)c1 | > 25 µM | > 25 µM |
| COC(=O)c1ccc(NC2=C(Cl)C(=O)C(C)=C(C)C2=O)cc1 | 1.49 µM | 3.1 µM |
| CC(=O)O[C@H]1[C@@H]2OC(=O)C(CSc3ccccc3)[C@@H]2C[C@H]2O[C@]2(C)CC/C=C(\C)CCC[C@@H]1C (stereo partly specified) | 1.46 µM | 3.62 µM |
| CCC(=O)Nc1ccc(C)c(-c2ccc(C(=O)NCC3CC3)cc2)c1 | 14.9 µM | > 25 µM |
